Here are results for 27 molecules from US20120157471A1, “BENZIMIDAZOLE DERIVATIVES” (PFIZER INC., priority 2009, published 2012).

The test system of assay [1] is Gli-Luc/MEF cells (Smo). As to the kind of experiment: Gli-Luc/MEF assay (Shh-stimulated luciferase reporter under the Gli response element). The assay is classed as cell-based, mouse. Particulars: Mus musculus, MEF, 48 h. The procedure, abridged:
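IC50 derived from luminescence (Bright-Glo) after 48 h at 37° C, 5% CO2, with compound at […] (3-fold dilutions) added together with mouse Shh at 2 μg/mL final. Cells: MEFs from Gli-Luc transgenic mice.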
Background: A reporter such as luciferase makes a cellular process visible.

Assay [2] has as its target T1, human Smo (amino acids 181-787) (Homo sapiens, UniProt Q99835).
T1 construct: expressed in transfected cells; membrane preparation
Briefly: Smo radioligand competition binding assay (displacement of 3H-PF-03451358 from HEK293 membranes). The note with it: for inhibition at 0.05 µM: 0.05 μM test compound, displacement of 3H-PF-03451358, read-out: SMO % inh. @ 0.05 μM; for IC50: radioligand competition binding. The procedure, abridged: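 Displacement of 3 nM tritiated PF-03451358 measured by filtration and scintillation counting after 2 h at room temperature, using 40 μg/well HEK293 membranes bearing cell-surface Smo 181-787, pH 7.5 buffer. Specific binding defined against 30 μM unlabelled ligand; IC50 via variable-slope sigmoidal fit.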

As a reminder, the IC50 is the concentration at which inhibition is half-maximal.

The structures appear in SMILES notation.

T1 sequence (Q99835 181-787): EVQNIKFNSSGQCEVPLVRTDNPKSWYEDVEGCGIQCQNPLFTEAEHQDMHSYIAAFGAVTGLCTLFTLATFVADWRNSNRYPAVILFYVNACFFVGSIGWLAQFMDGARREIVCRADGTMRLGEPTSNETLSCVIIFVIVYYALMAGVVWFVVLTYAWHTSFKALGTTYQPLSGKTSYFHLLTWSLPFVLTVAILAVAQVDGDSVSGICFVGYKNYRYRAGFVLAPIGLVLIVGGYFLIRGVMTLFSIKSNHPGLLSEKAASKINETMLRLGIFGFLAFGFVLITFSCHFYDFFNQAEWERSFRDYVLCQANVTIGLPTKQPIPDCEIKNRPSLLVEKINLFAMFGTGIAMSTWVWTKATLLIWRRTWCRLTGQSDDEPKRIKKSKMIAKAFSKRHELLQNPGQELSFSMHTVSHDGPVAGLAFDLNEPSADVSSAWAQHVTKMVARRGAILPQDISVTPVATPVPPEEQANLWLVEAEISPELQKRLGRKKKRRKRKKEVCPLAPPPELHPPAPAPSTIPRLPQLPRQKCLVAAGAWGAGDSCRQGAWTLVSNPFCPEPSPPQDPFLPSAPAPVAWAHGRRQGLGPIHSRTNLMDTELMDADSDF

As to `CC(=O)N1CCN(c2cc(-c3nc4ccccc4n3C)c(Cl)cn2)CC1` [Example A-1, 2-[2-(4-acetylpiperazin-1-yl)-5-chloropyridin-4-yl]-1-methyl-1H-benzimidazole], the figures for the IC50 in assay [1] and in assay [2] were 4 nM and 15.2 nM, respectively. For the same molecule, the inhibition at 0.05 µM in assay [2] was 90%.

In turn, `COCc1nnc2n1CCN(c1cc(-c3nc4ccccc4n3C)c(Cl)cn1)CC2` [Example A-93, 7-[5-chloro-4-(1-methyl-1H-benzimidazol-2-yl)pyridin-2-yl]-3-(methoxymethyl)-6,7,8,9-tetrahydro-5H-[1,2,4]triazolo[4,3-d][1,4]diazepine] returned an IC50 in assay [1] of 31 nM. Further, in assay [2], the inhibition at 0.05 µM amounted to 87% and the IC50 is 53 nM.

As to `Cn1c(-c2cc(N3CC(O)C3)ncc2Cl)nc2ccccc21` [Example A-94, 1-[5-chloro-4-(1-methyl-1H-benzimidazol-2-yl)pyridin-2-yl]azetidin-3-ol], the results for the half-inhibitory concentration (IC50) in assay [1] and in assay [2] were 46 nM and 87 nM, respectively. Moreover, the inhibition at 0.05 µM in assay [2] was found to be 87%.

Regarding `Cn1c(-c2cc(N3CCn4c(CCCO)nnc4C3)ncc2Cl)nc2ccccc21` [Example A-106, 3-{7-[5-chloro-4-(1-methyl-1H-benzimidazol-2-yl)pyridin-2-yl]-5,6,7,8-tetrahydro[1,2,4]triazolo[4,3-a]pyrazin-3-yl}propan-1-ol], the IC50 in assay [1] came out at 116 nM; in assay [2], 217 nM. For the same molecule, the inhibition at 0.05 µM in assay [2] worked out at 78%.

Consider `Cn1c(-c2cc(N3C[C@@H](CO)[C@@H](CCO)C3)ncc2Cl)nc2ccccc21` [Example A-111, 2-[(3R,4S)-1-[5-chloro-4-(1-methyl-1H-benzimidazol-2-yl)pyridin-2-yl]-4-(hydroxymethyl)pyrrolidin-3-yl]ethanol], for which, in assay [1], the IC50 was 25 nM. Besides, in assay [2], the inhibition at 0.05 µM is 73% and the IC50 amounted to 116 nM.

`CC(=O)N1CCN(c2ccc(Cl)c(-c3nc4ccccc4n3C)n2)CC1` [Example B-2, 2-[6-(4-acetylpiperazin-1-yl)-3-chloropyridin-2-yl]-1-methyl-1H-benzimidazole] returned an IC50 in assay [1] of 32 nM. Moreover, in assay [2], the inhibition at 0.05 µM came out at 95% and the IC50 was found to be 18 nM.

As to `Cn1c(-c2nc(N3CCC(O)CC3)ncc2Cl)nc2ccccc21` [Example C-11, 1-[5-chloro-4-(1-methyl-1H-benzimidazol-2-yl)pyrimidin-2-yl]piperidin-4-ol], the IC50 was 24 nM in assay [1] and 16 nM in assay [2]. Besides, the inhibition at 0.05 µM in assay [2] was determined as 98%.

Consider `COC(=O)NC1CCN(c2cc(-c3nc4ccccc4n3C)c(F)cn2)CC1` [Example D-12, methyl {1-[5-fluoro-4-(1-methy-1H-benzimidazol-2-yl)pyridin-2-yl]plpetidin-4-yl}carbamate], for which, in assay [1], the midpoint of inhibition, the IC50, lay at 7.7 nM. In assay [2], the inhibition at 0.05 µM came out at 96% and the IC50 was found to be 8 nM.

For the molecule `Cn1c(-c2cc(N3CCC(C(=O)NCCO)CC3)ncc2Cl)nc2ccccc21` [Example A-74, 1-[5-chloro-4-(1-methyl-1H-benzimidazol-2-yl)pyridin-2-yl]-N-(2-hydroxyethyl)piperidine-4-carboxamide], the 50% inhibitory concentration (IC50) in assay [1] was 11 nM. For the same molecule, in assay [2], the inhibition at 0.05 µM was determined as 93% and the IC50 stood at 27 nM.

On to `CC(=O)N1CCN(c2cc(-c3nc4ccccc4n3C)c(Cl)cn2)C[C@@H]1C` [Example A-162, 2-{2-[(3S)-4-acetyl-3-methylpiperazin-1-yl]-5-chloropyridin-4-yl}-1-methyl-1H-benzimidazole], for which the IC50 amounted to 5 nM in assay [1] and 7 nM in assay [2]. In addition, the inhibition at 0.05 µM in assay [2] was determined as 91%.

Consider `Cn1c(-c2cc(N3CCC(S(C)(=O)=O)CC3)ncc2Cl)nc2ccccc21` [Example A-20, 2-{5-chloro-2-[4-(methylsulfonyl)piperidin-1-yl]pyridin-4-yl}-1-methyl-1H-benzimidazole], for which the IC50 in assay [1] stood at 8 nM; in assay [2] it was 19 nM. Besides, the inhibition at 0.05 µM in assay [2] worked out at 87%.

As to `CN(C1CN(c2cc(-c3nc4ccccc4n3C)c(Cl)cn2)C1)S(C)(=O)=O` [Example A-149, N-{1-[5-chloro-4-(1-methyl-1H-benzimidazol-2-yl)pyridin-2-yl]azetidin-3-yl}-N-methylmethanesulfonamide], the IC50 in assay [1] was determined as 8 nM. Also, in assay [2], the inhibition at 0.05 µM was determined as 95% and the IC50 amounted to 14 nM.

The molecule `CNC(=O)NC1CN(c2cc(-c3nc4ccccc4n3C)c(Cl)cn2)C1` [Example A-180, 1-{1-[5-chloro-4-(1-methyl-1H-benzimidazol-2-yl)pyridin-2-yl]azetidin-3-yl}-3-methylurea] gave an IC50 in assay [1] of 43 nM. In addition, in assay [2], the inhibition at 0.05 µM amounted to 89% and the IC50 amounted to 60 nM.

For `CCS(=O)(=O)N1CCN(c2cc(-c3nc4ccccc4n3C)c(Cl)cn2)CC1` [Example A-27, 2-{5-chloro-2-[4-(ethylsulfonyl)piperazin-1-yl]pyridin-4-yl}-1-methyl-1H-benzimidazole], the figures for the IC50 in assay [1] and in assay [2] were 5 nM and 49 nM, respectively. In addition, the inhibition at 0.05 µM in assay [2] worked out at 93%.

In assay [1], `Cn1c(-c2cc(N3CCC(F)(F)CC3)ncc2Cl)nc2ccccc21` [Example A-210, 2-[5-chloro-2-(4,4-difluoropiperidin-1-yl)pyridin-4-yl]-1-methyl-1H-benzimidazole] registered an IC50 of 22 nM. For the same molecule, in assay [2], the inhibition at 0.05 µM worked out at 87% and the IC50 worked out at 57 nM.

In assay [1], `Cn1c(-c2ccnc(N3CCC(O)CC3)c2)nc2ccccc21` [Example A-18, 1-[4-(1-methyl-1H-benzimidazol-2-yl)pyridin-2-yl]piperidin-4-ol] yielded an IC50 of 115 nM. In assay [2], the inhibition at 0.05 µM worked out at 79% and the IC50 is 75 nM.

In turn, `Cn1c(-c2cc(N3C[C@H]4C[C@@H]3CN4S(C)(=O)=O)ncc2Cl)nc2ccccc21` [Example A-146, 2-{5-chloro-2-[(1R,4R)-5-(methylsulfonyl)-2,5-diazabicyclo[2.2.1]hept-2-yl]pyridin-4-yl}-1-methyl-1H-benzimidazole] displayed an IC50 in assay [1] of 92 nM. Further, in assay [2], the inhibition at 0.05 µM was determined as 75% and the IC50 stood at 202 nM.

Take `Cn1c(-c2cc(N3CCN(C(=O)CO)CC3)ncc2F)nc2ccccc21` [Example D-17, 1-{4-[5-fluoro-4-(1-methyl-1H-benzimidazol-2-yl)pyridin-2-yl]piperazin-1-yl}-2-hydroxyethanone]: in assay [1], the IC50 was found to be 13 nM. Moreover, in assay [2], the inhibition at 0.05 µM is 96% and the 50% inhibitory concentration (IC50) worked out at 15 nM.

On to `Cn1c(-c2cc(N3CCC(O)CC3)ncc2Cl)nc2cccnc21` [Example A-169, 1-[5-chloro-4-(3-methyl-3H-imidazo[4,5-b]pyridin-2-yl)pyridin-2-yl]piperidin-4-ol], for which, in assay [1], the IC50 was 138 nM. Besides, in assay [2], the inhibition at 0.05 µM was 76% and the 50% inhibitory concentration (IC50) was determined as 219 nM.

Take `C[C@H]1CN(c2cc(-c3nc4ccccc4n3C)c(Cl)cn2)CCN1` [Example A-160, 2-{5-chloro-2-[(3S)-3-methylpiperazin-1-yl]pyridin-4-yl}-1-methyl-1H-benzimidazole]: the concentration for half-maximal inhibition (IC50) in assay [1] was determined as 7 nM. Moreover, in assay [2], the inhibition at 0.05 µM was found to be 98% and the IC50 is 16 nM.

With `Cn1c(-c2nc(N3CCC(S(C)(=O)=O)CC3)ncc2Cl)nc2ccccc21` [Example C-14, 2-{5-chloro-2-[4-(methylsulfonyl)piperidin-1-yl]pyrimidin-4-yl}-1-methyl-1H-benzimidazole], the IC50 was 37 nM in assay [1] and 43 nM in assay [2]. Further, the inhibition at 0.05 µM in assay [2] came out at 90%.

`Cn1c(-c2ccnc(N3CCC(NS(C)(=O)=O)CC3)c2)nc2ccccc21` [Example A-17, N-{1-[4-(1-methyl-1H-benzimidazol-2-yl)pyridin-2-yl]piperidin-4-yl}methanesulfonamide] showed an IC50 in assay [1] of 6 nM. Moreover, in assay [2], the inhibition at 0.05 µM was found to be 99% and the IC50 was 13 nM.

In the case of `Cn1c(-c2cc(N3CCNCC3)ncc2Cl)nc2ccccc21` [Example A-23, 2-(5-chloro-2-piperazin-1-ylpyridin-4-yl)-1-methyl-1H-benzimidazole], the IC50 in assay [1] amounted to 31 nM. In assay [2], the inhibition at 0.05 µM was found to be 88% and the IC50 came out at 56 nM.

`CC(=O)N(C)C1CN(c2cc(-c3nc4ccccc4n3C)c(Cl)cn2)C1` [Example A-177, N-{1-[5-chloro-4-(1-methyl-1H-benzimidazol-2-yl)pyridin-2-yl]azetidin-3-yl}-N-methylacetamide]: the IC50 in assay [1] is 38 nM; in assay [2], 174 nM. Further, the inhibition at 0.05 µM in assay [2] came out at 73%.

Regarding `Cn1c(-c2cc(N3CC(NS(=O)(=O)CCO)C3)ncc2Cl)nc2ccccc21` [Example A-200, N-{1-[5-chloro-4-(1-methyl-1H-benzimidazol-2-yl)pyridin-2-yl]azetidin-3-yl}-2-hydroxyethanesulfonamide], the IC50 in assay [1] came out at 7.6 nM; in assay [2] it was 15 nM. Moreover, the inhibition at 0.05 µM in assay [2] turned out to be 98%.

Turning to `Cn1c(-c2nc(N3CCC(O)CC3)ccc2Cl)nc2ccccc21` [Example B-6, 1-[5-chloro-6-(1-methyl-1H-benzimidazol-2-yl)pyridin-2-yl]piperidin-4-ol], inhibition in assay [1] was half-maximal at 12 nM (IC50). In assay [2], the inhibition at 0.05 µM was 95% and the IC50 was 10 nM.

The molecule `Cc1nnc2n1CCN(c1cc(-c3nc4ccccc4n3C)c(Cl)cn1)C2` [Example A-117, 7-[5-chloro-4-(1-methyl-1H-benzimidazol-2-yl)pyridin-2-yl]-3-methyl-5,6,7,8-tetrahydro[1,2,4]triazolo[4,3-a]pyrazine] came in with an IC50 in assay [1] of 101 nM. Further, in assay [2], the inhibition at 0.05 µM amounted to 68%.
